Assay results reported in patent US20080096967A1, “Formulations for Injection of Catecholic Butanes, Including Ndga Compounds, Into Animals” (priority 2005, published 2008).
Like-named read-outs stand apart in the source and are kept apart here. Marks after values point to notes of the source that are not given here.

Tests used:
healthy male subjects = assay: Human Phase 0 microdose study: tolerability; format: in vivo; settings: oral and intravenous administrations, 100 μg
Description: This study was designed to assess the absorption of M4N when administered to humans as a sub-therapeutic dose either as a single oral dose under fed and fasted conditions or a single intravenous dose (Regimens A-C, respectively, in Table 24). The study was a three-way crossover study design in a target population of healthy male subjects and consisted of three study periods of approximately 35 hours duration, each separated by a minimum period of at least 7 days between dosing. During the course of each study period, pharmacokinetic blood samples were taken at specified time points after dosing and urine was collected over pre-defined time intervals. The subjects were able to leave the clinical unit after the completion of study specific procedures at 24 hours post-dose.

[1] = Human Phase 0 three-way crossover microdose pharmacokinetic study of 14C-labelled M4N (AMS); format: in vivo
Source text: This study was designed to assess the absorption of […] when administered to humans as a sub-therapeutic dose either as a single oral dose under fed and fasted conditions or a single intravenous dose (Regimens A-C, respectively, in Table 24). […] During the course of each study period, pharmacokinetic blood samples were taken at specified time points after dosing and urine was collected over pre-defined time intervals. The subjects were able to leave the clinical unit after the completion of study specific procedures at 24 hours post-dose. In this study, […] was administered to humans in a 100 μg quantity. […] Each oral administration of […] consisted of 0.1 mg of ^14C labeled […] and 376.8 mg of glycerol monooleate in a size 0 gelatin capsule. […] The baseline levels of […] were corrected for any residual […] remaining in the subjects following the periods between dosing so as not to inflate the levels of […] for any subsequent dosing.

[2] = Compatibility of IV tubing for delivery of M4N (visual inspection and HPLC); settings: PTFE and fluorelastomer, polypropylene, FEP, polyethylene, platinum cured silicone (small size)
Description: In this experiment, various types of tubing were tested for compatibility and for optimizing intravenous delivery of M4N. The tests on compatibility were based on visual inspection and HPLC (high pressure liquid chromatography) analysis.
The visual inspection was conducted as follows: About 5 mL of a formulation to be tested (“formulated material”) were passed through a tubing of about 20 cm in length. The formulated material was kept inside the tube for about 24 hr at room temperature (25° C.). The formulated material was then circulated several times (about 5 times, for example) through the tubing and was collected in a beaker or a collection tube. The formulated material was carefully inspected for precipitates or particulates present, including by holding the beaker or collection tube against a white background followed by a dark background.
The compatibility test using HPLC analysis varied in the methodology depending on the tubing being tested, the length of time and the purpose of the tubing. This test measured the amount of M4N in solution before and after circulation through different tubing.

Beagle dogs = assay: 7-Day intravenous infusion toxicity study of M4N(CPE) in Beagle dogs; format: in vivo
Description: This study was conducted to evaluate the toxicokinetic profile of M4N formulated in 30% HP-β-CD and 25% PEG 300 when administered as a single intravenous infusion dose for seven consecutive days in beagle dogs. This study constitutes the first study of this particular formulation of M4N in dogs and was executed to evaluate the toxicity and compare tolerability of a diluted formulation (10 mg/mL versus 5 mg/mL).
A total of twelve beagle dogs (8 male/4 female) were dosed with M4N via a 54-minute (Group 2) or 108-minute (Groups 1, 3 and 4) intravenous infusion. All animals received seven doses, one per day over seven consecutive days.
The following parameters were evaluated: clinical observations and body weights. Test article analysis was performed on Study Days 1 and 7, blood samples (targeting a volume of 2.0 mL) were collected from each animal from an appropriate vessel at the following time points:
Gross necropsies were performed on Groups 1 and 3 animals and all injection sites were processed for histology. […] Discolored urine appeared in Groups 1 and 3. […] The finding is likely indicative of irritation due to multiple needle insertions in the same dosing area (cephalic vein). […] Finally, sporadic observations of diarrhea, emesis, mucoid feces and soft feces were noted. These observations are common in beagle dogs and were considered stress-induced and not test article-related.

With `COc1ccc(C[C@@H](C)[C@@H](C)Cc2ccc(OC)c(OC)c2)cc1OC` [Formulation M4N, meso-1,4-bis(3,4-dimethoxyphenyl)-2,3-dimethylbutane] the adverse events (healthy male subjects) was “no serious or severe adverse events”, the “tolerability of study formulations” value (healthy male subjects) was “well tolerated” and the T½ ([1]; Regimen A (oral, fed): 100 μg single oral dose following a high fat breakfast, 14C, baseline corrected, mean ± SD) was 96.5 ± 20.7 h. The Cmax ([1]; Regimen A (oral, fed): 100 μg single oral dose following a high fat breakfast, 14C, baseline corrected, mean ± SD, read-out: Cmax) was 5.94 ± 1.33 pM, the Tmax ([1]; Regimen A (oral, fed): 100 μg single oral dose following a high fat breakfast, 14C, baseline corrected, median) was 2.50^a hours and the T½ ([1]; Regimen B (oral, fasted): 100 μg single oral dose following an overnight fast, 14C, baseline corrected, mean ± SD) was 50.9 ± 22.4 h. The Cmax ([1]; Regimen B (oral, fasted): 100 μg single oral dose following an overnight fast, 14C, baseline corrected, mean ± SD, read-out: Cmax) was 9.29 ± 1.4 pM, the Tmax ([1]; Regimen B (oral, fasted): 100 μg single oral dose following an overnight fast, 14C, baseline corrected, median) was 1.00^a hours and the T½ ([1]; Regimen C (Intravenous): 100 μg as 1 mL bolus intravenous solution following an overnight fast, 14C, baseline corrected, mean ± SD) was 116.2 ± 64.0 h. The Cmax ([1]; Regimen C (Intravenous): 100 μg as 1 mL bolus intravenous solution following an overnight fast, 14C, baseline corrected, mean ± SD, read-out: Cmax) was 10.3 ± 1.77 pM, the Tmax ([1]; Regimen C (Intravenous): 100 μg as 1 mL bolus intravenous solution following an overnight fast, 14C, baseline corrected, median) was 0.08^a hours and the Tmax ([1]; intravenous dose, eight of the ten subjects (first sampling time)) was 0.08 h. It also gave a Tmax ([1]; intravenous dose, two subjects) of 0.17 h, a Cmax ([1]; oral 100 μg 14C-labelled M4N after a high fat breakfast, mean±SD, read-out: Cmax for total 14C) of 5.94 ± 1.33 pM and a Cmax ([1]; oral 100 μg 14C-labelled M4N after an overnight fast, mean±SD, read-out: Cmax for total 14C) of 9.29 ± 1.4 pM. For the same compound, the apparent absorption ([1]; oral administration, fed and fasted state) was “very high”, the Tmax ([1]; oral, fasted subjects) was roughly 1 h and the Cmax ([1]; single intravenous dose 100 μg in 30% HP-β-CD, 25% PEG, mean±SD, read-out: Cmax for total 14C) was 10.3 ± 1.77 pM. The “compatibility of tubing for delivery of M4N (threshold about 90% of M4N remaining in solution)” value [2] was “compatible”, the “injection site histology, treated vs controls” value (Beagle dogs; Group 3 (90 mg/kg) vs Group 1 (vehicle)) was “more irritating than the vehicle” and the gross necropsy findings (Beagle dogs; Groups 1 and 3) was “No other gross findings”. For the same compound, the detailed clinical observations (Beagle dogs; Groups 2, 3 and 4 (45 or 90 mg/kg), daily IV infusion for 7 days, 30% HP-β-CD and 25% PEG 300) was “transient reversible uncoordination of hindlimbs”.
